Test results as given in article PMC10515483, “Structure–Reactivity Studies of 2-Sulfonylpyrimidines Allow Selective Protein Arylation” (Bioconjugate Chemistry, 2023).
Converted amounts (≈) assume the structure as drawn.

Experiments:
[1] = Solubility in KPi buffer by NMR with TMSP internal standard; details: 50 mM KPi aqueous buffer, pH 7, aqueous with cosolvent or surfactant or cyclodextrin, kinetic from dmso stock
Text: Stability and solubility assays
TopSpin. Normalised integrations of the pyrimidine aromatic 1H signals in the starting material and
product were plotted as a function of time (s), using the TMSP peak as standard for integral
calibration/normalisation and monitoring of compound solubility, allowing extraction of pseudo first
order reaction rate constants (k’). Second order rate constants (k) were back calculated from the ratio
of the pseudo first counterparts and the concentration of thiol in solution.
was confirmed by formation of a single S-arylated product (characteristic 2-alkylthioether signals),
concomitant with formation of the sulfinic acid by -product (leaving group). Hydrolytic stability
assessment was performed at pH 7.0 and pH 8.2 in a similar manner, in the absence of thiol.
Chemoselectivity. Similarly, but replacing GSH by other amino acids , reference 2-
methylsulfonylpyrimidine 4q in 50 mM KPi (pH 8.2) was incubated with 10 equivalents of either Boc-
Lys-OH, L-ser-OMe, N-Ac-Tyr-OH or Proline were used.

FGE-C341S = target: T1, FGE-C341S (Homo sapiens, UniProt Q8NBK3, C341S); test: Differential scanning fluorimetry (DSF); format: binding; details: 100 μM compound; 10 µM FGE; read-out: Protein thermal stability ΔTm
T1 construct: His7 (C); made in house; host or cells: High Five insect cells (baculovirus, pAcGP67B-His7)
T1 sequence (Q8NBK3 34-374 C341S): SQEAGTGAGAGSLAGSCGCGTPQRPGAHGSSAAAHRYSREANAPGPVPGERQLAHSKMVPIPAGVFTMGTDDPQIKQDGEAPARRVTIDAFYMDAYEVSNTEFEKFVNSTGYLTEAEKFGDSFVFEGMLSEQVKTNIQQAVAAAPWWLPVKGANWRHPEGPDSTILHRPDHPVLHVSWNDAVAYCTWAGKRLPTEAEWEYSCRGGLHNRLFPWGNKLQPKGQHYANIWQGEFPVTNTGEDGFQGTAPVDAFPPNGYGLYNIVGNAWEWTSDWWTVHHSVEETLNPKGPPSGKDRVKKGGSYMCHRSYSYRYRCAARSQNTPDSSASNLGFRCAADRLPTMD
Text: (§1) We also probed the general effect of 2-SPs on protein stability by using differential scanning fluorimetry (DSF). […] Mutants of the 25 kDa DNA-binding domain of the tumor suppressor p53 are notorious for their reduced thermal stability and denaturation/aggregation propensity.[37] The 56 kDa armadillo domain (ARD) of β-catenin mediates canonical Wnt signaling and plays a central role in embryogenesis and tissue homeostasis.[38] FGE (37 kDa) is the only known activator of human sulfatases, and its stability is susceptible to modification of its cysteines.[39] […]
The cloning of human FGE-WT cDNA into baculoviral transfer vector pAcGP67B-His7 and the generation of the recombinant virus (in Sf9 cells) for expression of C-terminally His-tagged recombinant human FGE in High Five insect cells have been […]
were generated by site -directed PCR mutagenesis using pAcGP67B-FGE-WT-His7 as template and the […]
-3’. All expression plasmids were verified by sequencing of the entire coding region to exclude any undesired PCR -derived errors. The purification method was essentially performed as described in Peng et al., with one modification. The size exclusion […]
chromatography (His -trap) step foll owed directly by a second step purification using the ion -exchange column chromatography (Resource -Q). […]

β-catenin ARD = target: T2, β-catenin ARD (Homo sapiens, UniProt P35222); test: Differential scanning fluorimetry (DSF); format: binding; details: 100 μM compound; 8 µM β-cat; read-out: Protein thermal stability ΔTm
T2 construct: vector pLipK-ARD (residues 150 – 662) was used; 6xHis-Lip (6xHis, lipoyl domain); made in house; host or cells: E. coli BL21(DE3) pRARE2
T2 sequence (P35222 150-662): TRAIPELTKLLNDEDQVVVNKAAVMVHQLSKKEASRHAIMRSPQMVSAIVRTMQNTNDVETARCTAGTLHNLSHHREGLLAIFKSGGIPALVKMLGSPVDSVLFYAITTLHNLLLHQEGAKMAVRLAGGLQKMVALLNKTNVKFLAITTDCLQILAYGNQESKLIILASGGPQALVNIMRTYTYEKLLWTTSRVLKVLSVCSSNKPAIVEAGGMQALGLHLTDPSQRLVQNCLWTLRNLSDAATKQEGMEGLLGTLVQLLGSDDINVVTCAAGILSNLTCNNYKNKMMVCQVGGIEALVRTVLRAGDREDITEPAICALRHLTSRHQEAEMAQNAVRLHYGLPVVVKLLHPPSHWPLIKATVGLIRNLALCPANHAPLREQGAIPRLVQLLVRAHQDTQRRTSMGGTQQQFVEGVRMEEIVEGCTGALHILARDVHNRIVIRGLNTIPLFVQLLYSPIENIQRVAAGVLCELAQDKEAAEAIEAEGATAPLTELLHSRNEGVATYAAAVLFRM
Text: as §1
Human β-catenin armadillo domain. β-catenin sequence was amplified by PCR (KOD DNA polymerase, Merck Millipore) from plasmid templates and cloned into bacterial expression vectors by restriction - free cloning. All plasmids were verified by sequencing. For protein pro duction, bacterial expression vector pLipK-ARD (residues 150 – 662) was used. 6xHis-Lip-tagged recombinant proteins were purified from BL21(DE3) pRARE2 E. coli bacterial strains. Bacteria were grown in LB media supplemented with appropriate antibiotic to OD600 0.6, then dropped to a lower temperature (16 – 24 °C) and induced at OD600 0.8 by addition of 0.4 mM isopropyl β -D-1-thiogalactopyranoside (IPTG). Proteins were expressed overnight and bacteria were subsequently harvested by centrifugation, cell pelle ts shock-frozen in liquid nitrogen and stored at -80°C until use. Cell pellets were re -suspended in lysis buffer (25 mM Tris -HCl pH 8, 200 mM NaCl, 20 mM imidazole, 10 μg/mL DNAse, EDTA -free protease inhibitor cocktail) and lysed with an Emulsiflex C-3 (Avestin). Lysates were cleared by ultracentrifugation (140,000x rcf, 30 minutes, 4°C) and mixed with Ni-NTA agarose. Beads were washed multiple times with lysis buffer, and 6xHisLip - tagged protein was eluted with lysis buffer supplemented with 500 mM imidazo le. The protein was further purified by SEC on a HiPrep26/60 G200 (GE Healthcare) into the final buffer of 200 mM NaCl, 25 mM Tris pH 7.4, 0.06% NaN3, 1 mM DTT, and protein purity was assessed by SDS -PAGE. Pure protein fractions were concentrated using a 1 0 kDa MWCO Vivaspin 20 concentrator (Sartorius) to 17 – 28 mg/mL, then shock frozen as droplets in liquid nitrogen and stored at -80°C until use. […]

[2] = Hydrolytic stability in KPi buffer without thiol (NMR); format: physicochemical; details: for % degradation: over 12 hours, 50 mM KPi, footnote a: crashing out of solution, no degradation product; for hydrolysis in aqueous buffer (in words): buffer in the absence of GSH
Procedure: NMR studies: rate constant determination and hydrolytic stability. 850 µL of 50 mM Kpi buffer solution (pH 8.2 or 7), 20 µL of the appropriate pyrimidine stock s olution (100 mM in DMSO -d6), 20 µL of TMSP stock solution (22.2 mM in DI water), 30 µL DMSO -d6, and 80 µL of GSH stock solution (0.25 M in DI water, reactivity only) were successively added/mixed at room temperature, final pH 7.0 or 6.5 (Table S1). 600 µL of this freshly prepared solution was poured into an NMR tube and immediately […]
transferred to the NMR instrument for acquisition. 1H spectra (16 scans) were recorded every 10 minutes under water suppression conditions. Following acquisition, spectra were analysed using […]
order reaction rate constants (k’).

Compound	melting point [°C]	solubility [1] [µM]	ΔTm at 100 µM (FGE-C341S) [°C]	ΔTm at 100 µM (β-catenin ARD) [°C]	% degradation ([2]; pH 7.0) [%]	% degradation ([2]; pH 8.2) [%]	hydrolysis in aqueous buffer (in words) [2]
COc1ccnc(S(C)(=O)=O)n1 [4b]	60	≥ 2000	0	-0.1 ± 0.1	–	–	–
CS(=O)(=O)c1ncc(I)cn1 [4u]	56	≥ 2000	-0.2 ± 0.3	-0.1 ± 0.1	< 5	14	–
COC(=O)c1ccnc(S(C)(=O)=O)n1 [4k]	80	≥ 2000	-0.4 ± 0.3	-0.1 ± 0.1	77	100	–
CS(=O)(=O)c1ncc(C(=O)O)cn1 [4v]	138	≥ 2000	-0.4 ± 0.3	-1.3 ± 0.1	18	–	–
CS(=O)(=O)c1nccc(C(N)=O)n1 [4j]	–	–	-0.6	-0.3 ± 0.3	–	–	–
O=S(=O)(NCc1ccccc1)c1ncccn1 [5g]	–	≥ 2000	0	0.3 ± 0.3	–	< 5	–
O=[N+]([O-])c1ccc(S(=O)(=O)c2ncccn2)cc1 [5f]	225	100 (≈ 26.5 µg/mL)	-0.4 ± 0.3	-0.1 ± 0.1	100	100	–
CS(=O)(=O)c1ncccn1 [4q, 2-methylsulfonylpyrimidine]	–	≥ 2000	-0.6	-0.1 ± 0.1	< 5	< 5	–
CS(=O)(=O)c1nccc(N)n1 [4g]	166	≥ 2000	-0.4 ± 0.3	-0.1 ± 0.1	5	–	–
CS(=O)(=O)c1nccc(C(F)(F)F)n1 [4l]	82	≥ 2000	-0.6	-1.7 ± 0.4	17	65	partial, slow hydrolysis
CS(=O)(=O)c1ncc(-c2ccccc2)cn1 [4p]	180	< 2000	-0.2 ± 0.3	-0.1 ± 0.1	78	78	–
Nc1ccc(S(=O)(=O)c2ncccn2)cc1 [5b]	200 to 201	≥ 2000	-0.4 ± 0.3	-0.1 ± 0.1	–	–	–
CCCCS(=O)(=O)c1ncccn1 [5c]	–	≥ 2000	-0.4 ± 0.3	-0.1 ± 0.1	–	–	–
CS(=O)(=O)c1ncc(C(F)(F)F)cn1 [4x]	–	≥ 2000	-0.6	-3.1 ± 0.6	97	100	partial, slow hydrolysis
CS(=O)(=O)c1ncc(Br)cn1 [4t]	–	≥ 2000	-0.4 ± 0.3	-0.7 ± 0.1	< 5	< 5	–
Cc1cc(C)nc(S(C)(=O)=O)n1 [4a]	–	≥ 2000	0	-0.1 ± 0.1	< 5	–	–
CS(=O)(=O)c1ncc(Br)c(C(=O)O)n1 [4i]	–	–	-0.6	-0.1 ± 0.1	–	–	–
COc1cc(OC)nc(S(C)(=O)=O)n1 [4f, 4,6-dimethoxy-2-methylsulfonylpyrimidine]	–	≥ 2000	0	-0.1 ± 0.1	–	–	–
O=S(=O)(Oc1c(F)c(F)c(F)c(F)c1F)c1ncccn1 [5h]	–	100 (≈ 32.6 µg/mL)	-0.2 ± 0.3	-0.1 ± 0.1	100	100	–
Cc1ccnc(S(C)(=O)=O)n1 [4c]	–	≥ 2000	-0.6	-0.1 ± 0.1	–	10	–
CS(=O)(=O)c1nccc(-c2ccccc2)n1 [4e]	–	< 2000	-0.2 ± 0.3	-0.1 ± 0.1	< 5	50	–
O=S(=O)(c1ccccc1)c1ncccn1 [5d]	–	≥ 2000	-0.4 ± 0.3	-0.1 ± 0.1	12	10	–
